Consider four molecules from patent publication US5006343A, “Pulmonary administration of pharmaceutically active substances” (priority 1988, dated 1991).

For data set [1] the following is noted: given systemically; cited from earlier work.
The nature of data set [2]: In vivo anesthetized rat model, radiolabelled Vitamin E in lung, 24 hour timecourse. The procedure:
(§1) The in vivo assay employed in examples 2 and 3 was performed by the following general procedure. The compositions were administered to the lungs of anesthetized adult Sprague-Dawley rats by endotracheal cannula. At various times after administration of the compositions, the animals were sacrificed by overdosing with anesthetics. The lungs and serum were obtained from each rat for analysis. The lung tissue was minced and extracted with 2:1 chloroform:methanol. The serum was extracted with 2:1 chloroform:methanol. The serum was sampled to get an indication of the amount of pharmaceutically active substance being transported into general circulation.
(§2) Liposomes were prepared as described in section A with the addition of ^3 H-Vitamin E in the lipid mixture before evaporation. The following weight ratios of lipid and Vitamin E were used to prepare the liposomes:
(§3) DPPC:PC:PG:Cholesterol:Vitamin E [drawing 1] The chloroform was evaporated from the lipid/Vitamin E mixture by rotary evaporation. The dried lipid/Vitamin E mixture was rehydrated in MEM-Krebs to a concentration of 87 μg Vitamin E/ml. Alveolar surfactant protein SP-A was added to the liposome mixture to a concentration of 100 μg/ml.
(§4) The liposomes containing Vitamin E prepared as in Example I above were tested in vivo by administration to rats according to the procedure outlined above in section C. […]

A short description of data set [3]: In vivo anesthetized rat model, radiolabelled Vitamin E in serum, 24 hour timecourse. As for the experimental part: as §1, §2, §3, §4
Data set [4] deals with type II cells. Particulars: result in words; cited from earlier work.
The test system of data set [5] is type II cells. In words: In vitro uptake of Vitamin E liposomes by freshly isolated type II cells. Type of data set: cell-based, male Sprague-Dawley rats. The conditions noted are these: result in words. The procedure: (§5) The in vitro assay employed in examples 1 and 4 was performed by the following general procedure. Freshly isolated type II cells were prepared by the method of Dobbs, et al., Am. Rev. Respir. Sid. (1986) 134:141-145. Briefly, lungs of specific-pathogen-free male Sprague-Dawley rats weighing 160-180 g (Bantin-Kingman, Fremont, CA) were digested with elastase (Cooper Biomedical, Malverne, PA). The minced digest was filtered through a series of nylon meshes and cells were collected by centrifugation. The cells were then plated on IgG-coated plates and the non-type II cells, which were primarily macrophages and lymophocytes, adhered to the plate over a period of one hour at 37° C. in a 10% CO2 /air incubator. The non-adherent cells were removed by gentle panning and were centrifuged at 130×g for 8 minutes. This cell pellet contained 85±1% type II cells. The viability of the cells as determined by erythrosin B exclusion averaged 97±1%.
(§6) 2.5×10^6 freshly isolated type II cells were suspended in 1 ml of MEM-Krebs. The concentration of calcium was […]. […] Zero time values were determined by centrifugation and washing of the cells immediately after addition of liposomes. […] The final cell pellet was resuspended in 0.5 ml of MEM-Krebs; 0.3 ml was analyzed for radioactivity in a Beckman LS-75000 scintillation counter. […]

Data set [6] relates to type II cells. Kind of data set: In vitro uptake of 6-carboxy-fluorscein liposomes by freshly isolated type II cells. Type of data set: cell-based, male Sprague-Dawley rats. Particulars: result in words. As for the experimental part: as §5, §6
A short description of data set [7]: In vivo anesthetized rat model, lung incorporation of radiolabelled Vitamin E, 60 minute timecourse. Also noted: species or system Sprague-Dawley rats. The conditions noted are these: result in words. As for the experimental part:
The serum was extracted with 2:1 chloroform:methanol.
The animals were sacrificed at 0 and 60 minutes and the lungs were tested for incorporation of radiolabelled Vitamin E as described above, with the following results: […]

Data set [8] can be described thus: ASP activity (in vivo assay of Robertson, or in vitro surface tension assay). Particulars: in combination as well as independently; result in words. As for the experimental part: In this assay, the sample to be assessed is administered through an endotracheal tube to fetal rabbits or lambs delivered prematurely by Caesarian section. (These "preemies" lack their own alveolar surfactant, and are supported on a ventilator.) Measurements of lung Compliance, blood gases and ventilator pressure provide indices of activity.
Preliminary assessment of activity may also be made by an in vitro assay, for example that of Kihg, R. J., et al, Am J Physiol (1972) 223:715-726, or that illustrated below of Hawgood, et al, which utilizes a straightforward measurement of surface tension at an air-water interface when the protein is mixed with a phospholipid vesicle preparation. […] The ASP activity can be used to enhance pulmonary administration of pharmaceutically active substances.

Where [9] appears, read: 24 hour timecourse, result in words.

Regarding `N=C(N)c1ccc(OCCCCCOc2ccc(C(=N)N)cc2)cc1` [Pentamidine isethionate, pentamidine isethionate], the toxicity entry in data set [1] is recorded as “quite toxic if given systemically”.

Take Vitamin E [reference compound]: in data set [2] (rat, in vivo), the “amount of radiolabelled Vitamin E in the lung, with vs. without SP-A” value is “comparable in experimental and control animals”. For the same molecule, the “serum radiolabelled Vitamin E, with vs. without SP-A” value in data set [3] (rat, in vivo) was “The same non-specific effect is also seen in the serum”.

As to “alveolar surfactant protein SP-A: relatively high molecular weight (of the order of 32 kD) apoprotein associated with the lung surfactant complex; sequence of FIG. 1”, the “cell specificity of effects” value in the data set on type II cells [4] is “seem specific to type II cells and macrophages”. In addition, the “effect on transport to the lung” value in data set [2] (setting [9]) was “enhances transport to the lung”. The “effect on uptake of liposomes containing Vitamin E” value in the data set on type II cells [5] is listed as “stimulates the uptake”. Moreover, the “effect on uptake of liposomes containing 6-carboxy-fluorscein” value in the data set with type II cells [6] is listed as “stimulates the uptake”. Also, the “effect on transport of the liposomes containing Vitamin E to lung tissue” value in data set [7] is on record as “stimulates the transport of the liposomes containing Vitamin E to lung tissue in a rapid fashion”. The “effect on serum levels of radiolabelled vitamin E” value in data set [3] (setting [9]) is recorded as “enhances serum levels of radiolabelled vitamin E”. In addition, the ASP activity entry in data set [8] is “show ASP activity in combination as well as independently”.

B1: SP-B: the larger of the two hydrophobic proteins, about 18 kD on gels under non-reducing conditions; sequence of FIG. 2 (protein, UniProt P07988 201-279, looked up)
Pulmonary …: FPIPLPYCWLCRALIKRIQAMIPKGALAVAVAQVCRVVPLVAGGICQCLAERYSVILLDTLLGRMLPQLVCRLVLRCSM
modifications: Pulmonary surfactant-associated protein B
As to B1, the ASP activity entry in data set [8] is “show ASP activity in combination as well as independently”.
